Source: the supplement of paper PMC10307832

compound: CN1CCN(CC1)C2=CC(=C(C=C2)NC3=NC=C4C(=N3)N(C5=CC=CC=C5C(=O)N4C)C)OC [XMD8-85] + Cc1cc(Nc2cc(N3CCN(C)CC3)nc(Sc3ccc(NC(=O)C4CC4)cc3)n2)n[nH]1 [Tozasertib] (partner 0.1 µM); assay: relative viability (nuclei count vs DMSO), 5 days (fraction); higher = more cells survive; settings: first compound 0.08 µM
Method in brief: (§1)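 Lung cancer cell lines in 1536-well plates were dosed by pin tool the day after seeding, either with one drug alone or with a fixed anchor-drug dose plus five library-drug doses (not always all listed) in √10 steps. After 5 days, cells were fixed and their nuclei stained in one step (final 0.05% Triton X-100, 1% formaldehyde, 1 ug/ml Hoechst), then counted on 4× images. Relative viability is the nuclei count in treated wells divided by that in vehicle wells. Values are medians of duplicate plates.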

Cell Line	relative viability
NCI-H727	0.55
NCI-H838	0.291
NCI-H1355	0.473
NCI-H1395	0.768
NCI-H1437	0.408
NCI-H1651	0.717
NCI-H1666	0.579
NCI-H1734	0.252
NCI-H1755	0.627
NCI-H1793	0.277
NCI-H1915	0.434
NCI-H1944	0.27
NCI-H1975	0.701
NCI-H1993	0.583
NCI-H2085	0.745
NCI-H2087	0.265
NCI-H2126	0.831
NCI-H2170	0.681
NCI-H2347	0.497
NCI-H2405	0.705
NCI-H3122	0.427
PC-3 [JPC-3]	0.723
PC-14	0.556
RERF-LC-KJ	0.552

same assay, conditions: first compound 0.253 µM

Cell Line	relative viability
NCI-H727	0.588
NCI-H838	0.305
NCI-H1355	0.467
NCI-H1395	0.786
NCI-H1437	0.415
NCI-H1651	0.818
NCI-H1666	0.641
NCI-H1734	0.248
NCI-H1755	0.571
NCI-H1793	0.322
NCI-H1915	0.404
NCI-H1944	0.277
NCI-H1975	0.721
NCI-H1993	0.628
NCI-H2085	0.913
NCI-H2087	0.223
NCI-H2126	0.843
NCI-H2170	0.671
NCI-H2347	0.438
NCI-H2405	0.749
NCI-H3122	0.453
PC-3 [JPC-3]	0.848
PC-14	0.529
RERF-LC-KJ	0.465

same assay, conditions: first compound 0.8 µM

Cell Line	relative viability
NCI-H727	0.6
NCI-H838	0.267
NCI-H1355	0.525
NCI-H1395	0.716
NCI-H1437	0.401
NCI-H1651	0.68
NCI-H1666	0.637
NCI-H1734	0.291
NCI-H1755	0.589
NCI-H1793	0.297
NCI-H1915	0.494
NCI-H1944	0.264
NCI-H1975	0.763
NCI-H1993	0.56
NCI-H2085	0.791
NCI-H2087	0.238
NCI-H2126	0.901
NCI-H2170	0.731
NCI-H2347	0.545
NCI-H2405	0.742
NCI-H3122	0.373
PC-3 [JPC-3]	0.974
PC-14	0.541
RERF-LC-KJ	0.473

same assay, conditions: first compound 2.53 µM

Cell Line	relative viability
NCI-H727	0.458
NCI-H838	0.25
NCI-H1355	0.376
NCI-H1395	0.693
NCI-H1437	0.329
NCI-H1651	0.436
NCI-H1666	0.601
NCI-H1734	0.257
NCI-H1755	0.584
NCI-H1793	0.289
NCI-H1915	0.389
NCI-H1944	0.256
NCI-H1975	0.485
NCI-H1993	0.557
NCI-H2085	0.644
NCI-H2087	0.245
NCI-H2126	0.735
NCI-H2170	0.639
NCI-H2347	0.516
NCI-H2405	0.694
NCI-H3122	0.237
PC-3 [JPC-3]	1
PC-14	0.463
RERF-LC-KJ	0.409

same assay, conditions: first compound 8 µM

Cell Line	relative viability
NCI-H727	0.47
NCI-H838	0.165
NCI-H1355	0.314
NCI-H1395	0.571
NCI-H1437	0.221
NCI-H1651	0.307
NCI-H1666	0.464
NCI-H1734	0.237
NCI-H1755	0.436
NCI-H1793	0.255
NCI-H1915	0.296
NCI-H1944	0.21
NCI-H1975	0.145
NCI-H1993	0.546
NCI-H2085	0.502
NCI-H2087	0.177
NCI-H2126	0.533
NCI-H2170	0.456
NCI-H2347	0.386
NCI-H2405	0.485
NCI-H3122	0.177
PC-3 [JPC-3]	0.625
PC-14	0.397
RERF-LC-KJ	0.295

compound: CN1CCN(CC1)C2=CC(=C(C=C2)NC3=NC=C4C(=N3)N(C5=CC=CC=C5C(=O)N4C)C)OC [XMD8-85] + NC(=O)Nc1cc(-c2cccc(F)c2)sc1C(=O)N[C@H]1CCCNC1 [AZD7762] (partner 0.2 µM); assay: as above; settings: first compound 0.08 µM
Method in brief: as §1

Cell Line	relative viability
NCI-H727	0.768
NCI-H838	0.972
NCI-H1355	0.678
NCI-H1395	0.382
NCI-H1437	1.11
NCI-H1651	0.46
NCI-H1666	0.836
NCI-H1734	0.562
NCI-H1755	0.542
NCI-H1915	0.735
NCI-H1944	0.585
NCI-H1975	0.742
NCI-H1993	0.772
NCI-H2085	0.851
NCI-H2087	1.42
NCI-H2126	1.06
NCI-H2170	0.784
NCI-H2347	0.686
NCI-H2405	0.636
NCI-H3122	1.05
PC-14	0.352
RERF-LC-KJ	1.01

same assay, conditions: first compound 0.253 µM

Cell Line	relative viability
NCI-H727	0.619
NCI-H838	0.987
NCI-H1355	0.697
NCI-H1395	0.393
NCI-H1437	1.13
NCI-H1651	0.431
NCI-H1666	0.87
NCI-H1734	0.534
NCI-H1755	0.663
NCI-H1793	0.408
NCI-H1915	0.71
NCI-H1944	0.585
NCI-H1975	0.656
NCI-H1993	0.716
NCI-H2085	0.936
NCI-H2087	1.25
NCI-H2126	1.12
NCI-H2170	0.937
NCI-H2405	0.741
NCI-H3122	1.08
PC-3 [JPC-3]	0.782
PC-14	0.364
RERF-LC-KJ	0.98

same assay, conditions: first compound 0.8 µM

Cell Line	relative viability
NCI-H727	0.465
NCI-H838	0.915
NCI-H1355	0.798
NCI-H1395	0.395
NCI-H1437	1.15
NCI-H1651	0.47
NCI-H1734	0.529
NCI-H1755	0.382
NCI-H1793	0.483
NCI-H1915	0.683
NCI-H1944	0.475
NCI-H1975	0.661
NCI-H1993	0.959
NCI-H2085	0.948
NCI-H2087	1.39
NCI-H2126	0.962
NCI-H2170	0.92
NCI-H2347	0.732
NCI-H2405	0.73
NCI-H3122	1.05
PC-3 [JPC-3]	0.82
PC-14	0.34
RERF-LC-KJ	0.936

same assay, conditions: first compound 2.53 µM

Cell Line	relative viability
NCI-H727	0.576
NCI-H838	0.856
NCI-H1355	0.817
NCI-H1395	0.418
NCI-H1437	1.09
NCI-H1666	1.01
NCI-H1734	0.626
NCI-H1755	0.519
NCI-H1793	0.344
NCI-H1944	0.543
NCI-H1975	0.653
NCI-H1993	0.844
NCI-H2085	0.993
NCI-H2087	1.23
NCI-H2126	1.05
NCI-H2170	0.918
NCI-H2405	0.708
NCI-H3122	1.06
PC-3 [JPC-3]	0.712
PC-14	0.394
RERF-LC-KJ	1.3

same assay, conditions: first compound 8 µM

Cell Line	relative viability
NCI-H727	0.42
NCI-H838	0.868
NCI-H1395	0.35
NCI-H1437	0.886
NCI-H1651	0.433
NCI-H1666	0.694
NCI-H1755	0.512
NCI-H1793	0.413
NCI-H1915	0.725
NCI-H1944	0.462
NCI-H1975	0.547
NCI-H1993	0.818
NCI-H2085	0.881
NCI-H2087	0.96
NCI-H2126	1.06
NCI-H2170	0.759
NCI-H2347	0.704
NCI-H2405	0.467
NCI-H3122	1.14
PC-3 [JPC-3]	0.411
PC-14	0.18
